16 molecules from patent US9957254B2, “Cyclohexen-1-yl-pyridin-2-yl-1h-pyrazole-4-carboxylic acid derivatives and the use thereof as soluble guanylate cyclase activators” (Novartis AG, priority 2014, dated 2018) can be followed below.

The term EC50 denotes the concentration that produces a half-maximal response. High values mean weaker potency, low ones greater potency.

This assay concerns the target T1, soluble guanylate cyclase (Homo sapiens, UniProt Q02153).
T1 construct: expressed in transfected cells
Description: CHO cellular assay (cGMP production, Cisbio cGMP HTRF). As to conditions: CHO K1 cells overexpressing human GUCYA3/GUCYB3 (clone 8E10), 1 mM IBMX, 20 uM ODQ, 1 h room temperature, listed 0.5 nM means actual EC50 ≤0.5 nM (quantification limit). In kind it is cell-based. The text has this:
Chinese hamster ovary (CHO) cells overexpressing soluble guanylate cyclase were generated to test the effect of sGC activators in a cellular context. Human cDNAs for GUCYA3 (RefSeq: NM_000856.3) and GUCYB3 (RefSeq: NM_000857.1) were amplified by PCR from a HUVEC (Human Umbilical Vein Endothelial Cells) cDNA library and cloned into mammalian expression vectors. CHO K1 cells (ATCC CCL-61) were transfected using Lipofectamine 2000 following manufacturer's instructions and stably expressing clones were identified by antibiotic selection. CHO GUCY clone 8E10 was used for subsequent experiments.
Cells were seeded at a density of 3000 cells/well in white 384-well proxyplates (Perkin Elmer) and incubated overnight, then the medium was removed and cells were washed with assay buffer (HBSS, 0.1% BSA, 1 mM IBMX, 20 uM ODQ). sGC activators were serially diluted in DMSO, then diluted in assay buffer prior to adding to cells (10 ul/well, final DMSO concentration 0.5%). Cells were incubated with compounds for 1 h room temperature, then assayed for cGMP production using Cisbio cGMP HTRF kit (62GM2PEC) according to manufacturer's instructions.
The EC50s are calculated based on the amount of cGMP interpolated from the standard curve, using a 4-parameter sigmoidal dose-response.
Compounds of invention are active on sGC activation. Data on Table 1 collected using the assay of Biological Example 1. The minimum EC50 quantification limit of the assay is 0.5 nM, therefore any compound listed as having an EC50 value of 0.5 nM has a actual EC50 of ≤0.5 nM.
(Time-resolved FRET reads energy transfer from a long-lived donor to a nearby acceptor.)

T1 sequence (Q02108 whole entry partner): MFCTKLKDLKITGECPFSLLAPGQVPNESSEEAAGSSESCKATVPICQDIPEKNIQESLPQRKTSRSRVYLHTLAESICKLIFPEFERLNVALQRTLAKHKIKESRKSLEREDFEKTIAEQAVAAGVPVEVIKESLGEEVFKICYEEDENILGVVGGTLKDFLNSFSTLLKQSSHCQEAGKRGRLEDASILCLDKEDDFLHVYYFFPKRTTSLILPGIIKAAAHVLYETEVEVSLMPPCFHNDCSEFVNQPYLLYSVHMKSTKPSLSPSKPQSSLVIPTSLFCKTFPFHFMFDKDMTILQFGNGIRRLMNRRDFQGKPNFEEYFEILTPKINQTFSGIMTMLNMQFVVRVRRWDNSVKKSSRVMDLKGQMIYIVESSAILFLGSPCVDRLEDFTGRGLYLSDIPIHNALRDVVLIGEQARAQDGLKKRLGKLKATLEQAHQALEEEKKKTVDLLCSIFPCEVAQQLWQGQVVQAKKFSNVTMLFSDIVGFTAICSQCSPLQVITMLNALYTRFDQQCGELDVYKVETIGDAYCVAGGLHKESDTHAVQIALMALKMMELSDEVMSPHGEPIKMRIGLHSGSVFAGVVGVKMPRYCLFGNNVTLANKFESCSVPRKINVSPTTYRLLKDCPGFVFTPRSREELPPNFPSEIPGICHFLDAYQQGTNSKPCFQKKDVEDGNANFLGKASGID
T1 sequence (Q02153 whole entry): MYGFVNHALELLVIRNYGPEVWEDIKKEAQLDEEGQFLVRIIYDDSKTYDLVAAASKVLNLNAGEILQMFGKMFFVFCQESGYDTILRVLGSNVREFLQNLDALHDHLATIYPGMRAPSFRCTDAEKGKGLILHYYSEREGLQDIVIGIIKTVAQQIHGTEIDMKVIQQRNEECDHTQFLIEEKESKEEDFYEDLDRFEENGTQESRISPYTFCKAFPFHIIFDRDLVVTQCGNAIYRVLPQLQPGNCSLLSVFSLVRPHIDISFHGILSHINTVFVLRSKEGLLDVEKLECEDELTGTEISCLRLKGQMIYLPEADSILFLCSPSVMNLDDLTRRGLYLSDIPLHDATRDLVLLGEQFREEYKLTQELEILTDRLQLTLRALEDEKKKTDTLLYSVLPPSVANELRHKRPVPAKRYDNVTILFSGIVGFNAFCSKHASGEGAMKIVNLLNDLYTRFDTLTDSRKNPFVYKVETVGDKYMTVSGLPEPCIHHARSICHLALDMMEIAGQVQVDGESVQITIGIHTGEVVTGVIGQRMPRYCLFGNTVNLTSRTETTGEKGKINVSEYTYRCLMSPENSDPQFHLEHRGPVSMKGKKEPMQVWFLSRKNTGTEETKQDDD

`CCc1cc(OCC2=C(c3cccc(-n4ncc(C(=O)O)c4CC)n3)CCCC2C)ccc1C1CCN(C(=O)C2CC2)CC1` (single isomer, unassigned; (-)) [Example 17b, (−)-1-(6-(2-((4-(1-(Cyclopropanecarbonyl)piperidin-4-yl)-3-ethylphenoxy)methyl)-3-methylcyclohex-1-en-1-yl)pyridin-2-yl)-5-ethyl-1H-pyrazole-4-carboxylic acid] gave an EC50 of 1.4 nM. Under `CCc1cc(NCC2=C(c3cccc(-n4ncc(C(=O)O)c4C(F)(F)F)n3)CCCC2)ccc1C1CCN(C(=O)C2CC2)CC1` [Example 26, 1-(6-(2-(((4-(1-(Cyclopropanecarbonyl)piperidin-4-yl)-3-ethylphenyl)amino)methyl)cyclohex-1-en-1-yl)pyridin-2-yl)-5-(trifluoromethyl)-1H-pyrazole-4-carboxylic acid] stands at most 0.5 nM; under `Cc1cc(C2CCN(C(=O)C3CC3)CC2)ccc1OCC1=C(c2cccc(-n3ncc(C(=O)O)c3C(F)(F)F)n2)CC(C)CC1` (single isomer, unassigned; (+)) [Example 12 (+), (+)-1-(6-(2-((4-(1-(cyclopropanecarbonyl)piperidin-4-yl)-2-methylphenoxy)methyl)-5-methylcyclohex-1-en-1-yl)pyridin-2-yl)-5-(trifluoromethyl)-1H-pyrazole-4-carboxylic acid], at most 0.5 nM; under `CCc1cc(OCC2=C(c3cccc(-n4ncc(C(=O)O)c4C)n3)CCCC2C)ccc1C1CCN(C(=O)C2CC2)CC1` (single isomer, unassigned; (-)) [Example 16b, (−)-1-(6-(2-((4-(1-(Cyclopropanecarbonyl)piperidin-4-yl)-3-ethylphenoxy)methyl)-3-methylcyclohex-1-en-1-yl)pyridin-2-yl)-5-methyl-1H-pyrazole-4-carboxylic acid], 3 nM. Take `O=C(O)c1cnn(-c2cccc(C3=C(COc4ccc5c(c4)CCN(Cc4ccc6ccccc6n4)C5)CCCC3)n2)c1C(F)(F)F` [Example 6-2, 1-(6-(2-(((2-(quinolin-2-ylmethyl)-1,2,3,4-tetrahydroisoquinolin-6-yl)oxy)methyl)cyclohex-1-en-1-yl)pyridin-2-yl)-5-(trifluoromethyl)-1H-pyrazole-4-carboxylic acid]: the EC50 was found to be 16 nM. Compared with the last molecule, the EC50 is about 5.3-fold higher. As for `COC(=O)N1CCC(c2ccc(OCC3=C(c4cccc(-n5ncc(C(=O)O)c5C(F)(F)F)n4)CCCC3)c(C)c2)CC1` [Example 2-2, 1-(6-(2-((4-(1-(methoxycarbonyl)piperidin-4-yl)-2-methylphenoxy)methyl)cyclohex-1-en-1-yl)pyridin-2-yl)-5-(trifluoromethyl)-1H-pyrazole-4-carboxylic acid], the figure is 1 nM; as for `CCc1cc(OCC2=C(c3cccc(-n4ncc(C(=O)O)c4C(F)(F)F)n3)CCCC2(C)C)ccc1C1CCN(C(=O)C2CC2)CC1` [Example 14, 1-(6-(2-((4-(1-(Cyclopropanecarbonyl)piperidin-4-yl)-3-ethylphenoxy)methyl)-3,3-dimethylcyclohex-1-en-1-yl)pyridin-2-yl)-5-(trifluoromethyl)-1H-pyrazole-4-carboxylic acid], 1 nM; as for `Cc1cc(C2CCN(CC(F)(F)F)CC2)ccc1OCC1=C(c2cccc(-n3ncc(C(=O)O)c3C(F)(F)F)n2)CCCC1` [Example 6-1, 1-(6-(2-((2-methyl-4-(1-(2,2,2-trifluoroethyl)piperidin-4-yl)phenoxy)methyl)cyclohex-1-en-1-yl)pyridin-2-yl)-5-(trifluoromethyl)-1H-pyrazole-4-carboxylic acid], 2.8 nM.

In turn, `Cc1cc(C2CCN(C(=O)CO)CC2)ccc1OCC1=C(c2cccc(-n3ncc(C(=O)O)c3C(F)(F)F)n2)CCCC1` [Example 2-5, 1-(6-(2-((4-(1-(2-hydroxyacetyl)piperidin-4-yl)-2-methylphenoxy)methyl)cyclohex-1-en-1-yl)pyridin-2-yl)-5-(trifluoromethyl)-1H-pyrazole-4-carboxylic acid] yielded an EC50 of 2.4 nM. Under `Cc1cc(C2CCN(C(=O)C3CCC3)CC2)ccc1OCC1=C(c2cccc(-n3ncc(C(=O)O)c3C(F)(F)F)n2)CCCC1` [Example 2-11, 1-(6-(2-((4-(1-(cyclobutanecarbonyl)piperidin-4-yl)-2-methylphenoxy)methyl)cyclohex-1-en-1-yl)pyridin-2-yl)-5-(trifluoromethyl)-1H-pyrazole-4-carboxylic acid] stands 1 nM; under `CCc1cc(OCC2=C(c3cccc(-n4ncc(C(=O)O)c4CC)n3)CCCC2C)ccc1C1CCN(C(=O)[C@H](C)O)CC1` (single isomer, unassigned; diastereomer-1) [Example 18a], at most 0.5 nM. As for `Cc1cc(C2CCN(CC(F)(F)F)CC2)ccc1OCC1=C(c2cccc(-n3ncc(C(=O)O)c3C(F)(F)F)n2)CCC1` [Example 25, 1-(6-(2-((2-Methyl-4-(1-(2,2,2-trifluoroethyl)piperidin-4-yl)phenoxy)methyl)cyclopent-1-en-1-yl)pyridin-2-yl)-5-(trifluoromethyl)-1H-pyrazole-4-carboxylic acid], the figure is 5 nM. As for `Cc1cc(C2CCN(C(=O)C3CC3)CC2)ccc1OCC1=C(c2cccc(-n3ncc(C(=O)O)c3C(F)(F)F)n2)CCCC1` [Example 1, 1-(6-(2-((4-(1-(Cyclopropanecarbonyl)piperidin-4-yl)-2-methylphenoxy)methyl)cyclohex-1-en-1-yl)pyridin-2-yl)-5-(trifluoromethyl)-1H-pyrazole-4-carboxylic acid], the figure is at most 0.5 nM; as for `Cc1cc(C2CCN(C(=O)C3CC3)CC2)ccc1OCC1=C(c2cccc(-n3ncc(C(=O)O)c3C(F)(F)F)c2)CCCC1` [Example 10, 1-(6′-((4-(1-(Cyclopropanecarbonyl)piperidin-4-yl)-2-methylphenoxy)methyl)-2′,3′,4′,5′-tetrahydro-[1,1-biphenyl]-3-yl)-5-(trifluoromethyl)-1H-pyrazole-4-carboxylic acid], 1 nM. `CCc1cc(OCC2=C(c3cccc(-n4ncc(C(=O)O)c4C(F)(F)F)n3)CCCC2)ccc1C1CCN(C(=O)C2CC2)CC1` [Example 7, 1-(6-(2-((4-(1-(Cyclopropanecarbonyl)piperidin-4-yl)-3-ethylphenoxy)methyl)cyclohex-1-en-1-yl)pyridin-2-yl)-5-(trifluoromethyl)-1H-pyrazole-4-carboxylic acid] displayed an EC50 of 1 nM. As for `CCc1cc(OCC2=C(c3cccc(-n4ncc(C(=O)O)c4CC)n3)CCCC2C)ccc1C1CCN(C(=O)C2CC2)CC1` (single isomer, unassigned; (+)) [Example 17a, (+)-1-(6-(2-((4-(1-(Cyclopropanecarbonyl)piperidin-4-yl)-3-ethylphenoxy)methyl)-3-methylcyclohex-1-en-1-yl)pyridin-2-yl)-5-ethyl-1H-pyrazole-4-carboxylic acid], the figure is at most 0.5 nM.
